Measured values: patent US20030065176A1, “Factor xa inhibitors with aryl-amidines and derivatives, and prodrugs thereof” (priority 2000, published 2003)
Counter-ions that a name gives are not always drawn. Like-named read-outs stand apart in the source and are kept apart here.

Experiments:
human thrombin = human thrombin (Homo sapiens, UniProt P00734); assay: Thrombin inhibition assay (selectivity against thrombin); assay type: biochemical; conditions: for Selectivity (thrombin/FXa): ratio of Ki values; for Ki: read-out: Inhibition ability against thrombin Ki
Method: The FXa inhibiting selectivity of the compound according to the present invention to thrombin is measured as follows. The inhibition effect of the compound of formula 1 to thrombin is measured in Ki value by practicing the same method as the above measuring method of FXa inhibiting activity, and the rate of thrombin/FXa is obtained. At this time, the experimental method of thrombin is the same as that of FXa, except that Chromozyme TH (Tosyl-Gly-Pro-Arg-nitroanilide acetate) is used as the substrate.
Inhibiting ability of a compound according to the present invention against thrombin activity was measured as follows.
In 1.5 mL cuvette, 0.1M tris buffer solution (pH 7.8) comprising 150 mM NaCl, and 0.1% PEG 8000 (molecular weight 8000) was placed by 1160 uL. Chromozyme X was dissolved in dimethylsulfoxide (DMSO) to be 0.1 mM, and diluted with the above buffer solution to be 0.1 mM to prepare the substrate solution. 225 uL of 0.1 mM substrate solution as prepared above was added to cuvette. The compound of the present invention was dissolved in DMSO to be 10 mM, and diluted with the above buffer solution to be 0.1 mM, 0.01 mM and 0.001 mM, respectively, to prepare an inhibitor solution. The inhibitor solution was taken in an amount from 0 to 20 uL, and supplemented with tris buffer solution up to 20 uL of total volume of the solution to add to the cuvette.
15 uL of human thrombin, which was dissolved in the above tris buffer solution to be 0.1 mg/mL, was added to the cuvette having the reaction solution at room temperature to begin enzyme hydrolysis. The amount of para-nitroanilide produced for 2 minutes after adding enzyme was monitored about variation of absorbency at 381 nm to depict continuous spectrum of reaction time to absorbency. The above experiment was repeated for various concentrations of inhibitor to obtain consecutive spectrum.
The initial velocity Vi was calculated from gradient within 30 sec of the reaction time in each spectrum. A graph was depicted for a reciprocal of the initial velocity to inhibitor concentration (1/Vi). A linear equation corresponding to points on the graph was obtained. Thereafter, Ki may be calculated by using enzyme reaction equation from x intercept.

trypsin [1] = molecular target: T1, trypsin (UniProt P00760); assay: Trypsin inhibition assay (selectivity against trypsin); assay type: biochemical; conditions: read-out: Inhibition ability against trypsin Ki
T1 construct: other: A1: cyclopropyl scaffold; other: A2: pyrrole scaffold; other: A3: bicyclic scaffold; other: A4: cyanophenylalanine scaffold
T1 sequence (P00760 1-246): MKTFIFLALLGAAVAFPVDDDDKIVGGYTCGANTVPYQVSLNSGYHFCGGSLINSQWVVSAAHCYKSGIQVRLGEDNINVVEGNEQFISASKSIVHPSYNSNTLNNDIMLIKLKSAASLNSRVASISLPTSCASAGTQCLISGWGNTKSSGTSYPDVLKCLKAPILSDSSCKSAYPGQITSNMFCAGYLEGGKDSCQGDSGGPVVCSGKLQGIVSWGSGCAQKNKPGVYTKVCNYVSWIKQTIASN
Method: (§1) The FXa inhibition selectivity of the compound according to the present invention to trypsin is measured as follows. The inhibition effect of the compound of formula 1 to trypsin is measured in Ki value by practicing the same method as the above measuring method of FXa inhibiting activity, and the rate of trypsin/FXa is obtained. At this time, the experimental method of thrombin is the same as that of FXa, except that N-benzoyl-Val-Gly-Arg-p-nitroanilide hydrochloride is used as the substrate.
(§2) Inhibition activity of a compound according to the present invention was measured by performing the experiment as explained above concerning FXa.
(§3) 20 uM solution of N-benzoyl-Val-Gly-Arg-p-nitroanilide hydrochloride was used as a substrate. An inhibitor solution with various concentrations in the range of 0 to 120 uM was used. Trypsin was dissolved in 0.1N HCl, and supplemented with the above tris buffer solution to be 45 ug/mL. Thereafter, 40 uL of the trypsin solution was used. The remaining procedure and the used amounts of materials (for example, […] of total volume of the reaction solution) and the like were the same as those of the experiment for thrombin. Also, Km was decided in the same method as used in Ki calculation.

trypsin [2] = assay: as above; assay type: biochemical; conditions: ratio of Ki values
Method: as §1, §2, §3

FXa = FXa (Homo sapiens, UniProt P00742); conditions: background art; cited from earlier work
[3] = background art; cited from earlier work
[4] = A4: cyanophenylalanine scaffold

FXa, sequence (P00742 235-488 limits assumed): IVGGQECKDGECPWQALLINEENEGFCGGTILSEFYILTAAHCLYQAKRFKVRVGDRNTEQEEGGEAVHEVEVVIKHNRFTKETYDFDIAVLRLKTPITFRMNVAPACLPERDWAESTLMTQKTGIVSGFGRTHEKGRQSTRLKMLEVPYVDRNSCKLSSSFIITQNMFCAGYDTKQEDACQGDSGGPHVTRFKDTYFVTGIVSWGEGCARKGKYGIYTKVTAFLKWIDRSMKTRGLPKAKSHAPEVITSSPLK
FXa, sequence (P00742 41-179 limits assumed): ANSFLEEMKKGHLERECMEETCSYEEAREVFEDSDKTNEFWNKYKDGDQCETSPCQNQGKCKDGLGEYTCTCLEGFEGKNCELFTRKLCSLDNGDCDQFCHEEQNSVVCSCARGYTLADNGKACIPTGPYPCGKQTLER

In the case of `N#Cc1ccccc1-c1ccc(NC(=O)[C@@H]2C[C@@H]2c2cccc(C(=N)N)c2)cc1.O=C(O)C(F)(F)F` (relative stereo) [Compound No. A1-7, 4-(2-cyanophenyl)-phenyl [1,2]-cis, [2,3]-cis-2-(3-aminoiminomethylphenyl)cyclopropane-1-carboxamide mono trifluoroacetic acid salt], the “Selectivity (thrombin/FXa)” value (human thrombin; A1: cyclopropyl scaffold) is reported as 400, the Ki (human thrombin; A1: cyclopropyl scaffold) is reported as 2000 nM and the Ki (trypsin [1]; A1: cyclopropyl scaffold) is reported as 200 nM. The “Selectivity (trypsin/FXa)” value (trypsin [2]; A1: cyclopropyl scaffold) was 40.

In the case of `N=C(N)c1cccc(C2=NOC(Cc3nn[nH]n3)(C(=O)Nc3ccc(-c4ccccc4S(N)(=O)=O)cc3)C2)c1` (stereo not drawn) [SK-549], the “effect as a Fxa inhibitor” value (FXa) is given as “excellent effect as a Fxa inhibitor” and the “selectivity against thrombin, trypsin and the like enzymes” value (FXa) is given as “excellent selectivity against thrombin, trypsin and the like enzymes”.

For `Cc1ccc(S(N)(=O)=O)c(-c2ccc(NC(=O)[C@@H]3C[C@@H]3c3cccc(C(=N)N)c3)cc2)c1.O=C(O)C(F)(F)F` (relative stereo) [Compound No. A1-4, 4-(2-aminosulfonyl-5-methyl-phenyl)-phenyl cis-2-(3-aminoiminomethylphenyl)-cyclopropane-1-carboxamide mono trfluoroacetic acid salt], the “Selectivity (thrombin/FXa)” value (human thrombin; A1: cyclopropyl scaffold) was 127 and the Ki (human thrombin; A1: cyclopropyl scaffold) was 380 nM.

For `N=C(N)c1ccc(O)c(CN2CC[C@H](NS(=O)(=O)c3ccc(-c4cccnc4)s3)C2=O)c1` [RPR-130737], the “effect as a Fxa inhibitor” value (FXa) is listed as “excellent effect as a Fxa inhibitor” and the “selectivity against thrombin, trypsin and the like enzymes” value (FXa) is listed as “excellent selectivity against thrombin, trypsin and the like enzymes”.

For `CCOC(=O)c1cn(Cc2cccc(C(=N)N)c2)cc1-c1cccc(-c2ccccc2)c1.O=C(O)C(F)(F)F` [Compound No. A2-51, Ethyl 4-(3-biphenyl)-1-(3-aminoiminomethylbenzyl)-pyrrole-3-carboxylate trifluoroacetic acid salt], the “Selectivity (thrombin/FXa)” value (human thrombin; A2: pyrrole scaffold) was 0.08.

With `N=C(N)c1cccc(NC(=O)Nc2ccccc2-c2cccc(C(=N)N)c2)c1.O=C(O)C(F)(F)F.O=C(O)C(F)(F)F` [Compound No. A3-11] the “Selectivity (thrombin/FXa)” value (human thrombin; A3: bicyclic scaffold) was 6.4.

For `N=C(N)c1ccc(NC(=O)Nc2ccccc2-c2ccc(C(=N)N)cc2)cc1.O=C(O)C(F)(F)F.O=C(O)C(F)(F)F` [Compound No. A3-9], the “Selectivity (thrombin/FXa)” value (human thrombin; A3: bicyclic scaffold) was 0.04.

For `Cc1ccc(S(N)(=O)=O)c(-c2ccc(NC(=O)[C@@H]3C[C@H]3c3cccc(C(=N)N)c3)cc2)c1.O=C(O)C(F)(F)F` (relative stereo) [Compound No. A1-3], the “Selectivity (thrombin/FXa)” value (human thrombin; A1: cyclopropyl scaffold) was 5 and the “Selectivity (trypsin/FXa)” value (trypsin [2]; A1: cyclopropyl scaffold) was 0.94.

In the case of `C[n+]1cccc(-c2ccc(NC(=O)C3=C(c4cccc(C(=N)N)c4)CCC3)cc2)c1.O=C([O-])C(F)(F)F` [Compound No. A3-26, 4-(N-methylpyridinium-3-yl)-phenyl 2-(3-aminoiminomethylphenyl)-cyclopenetene-1-carboxamide trifluoroacetic acid salt], the “Selectivity (thrombin/FXa)” value (human thrombin; A3: bicyclic scaffold) is reported as 670, the Ki (trypsin [1]; A3: bicyclic scaffold) is reported as 210 nM and the “Selectivity (trypsin/FXa)” value (trypsin [2]; A3: bicyclic scaffold) is reported as 10.

For `N=C(N)c1cccc(-c2ccccc2NS(=O)(=O)Cc2ccccc2)c1.O=C(O)C(F)(F)F` [Compound No. A3-21], the “Selectivity (thrombin/FXa)” value (human thrombin; A3: bicyclic scaffold) was 0.73.

In the case of `CCOC(=O)c1cn(Cc2ccc(-c3ccccc3)cc2)cc1Cc1cccc(C(=N)N)c1.O=C(O)C(F)(F)F` [Compound No. A2-19, Ethyl 4-(3-aminoiminomethylbenzyl)-1-(4-biphenylmethyl)-pyrrole-3-carboxylate trifluoroacetic acid salt], the “Selectivity (thrombin/FXa)” value (human thrombin; A2: pyrrole scaffold) is reported as 0.4.

In the case of `CN1CCN=C1c1cccc(Oc2nc(Oc3cc(C(=N)N)ccc3O)c(F)c(N(C)CC(=O)O)c2F)c1` [ZK-80719], the oral absorption [3] is given as “capable of being absorbed orally”.

For `CC(C)c1nc2c(C(=O)O)cc(NC3CCN(C(=N)N)CC3)cc2n1Cc1ccc2ccc(C(=N)N)cc2c1` [ZK-807369], the oral absorption [3] is listed as “capable of being absorbed orally”.

In the case of “4-(2-cyanophenyl)-phenyl N-carboxymethyl)-3-(3-aminoiminomethylphenyl)alanine amide trifluoroacetic acid salt [Compound No. A4-10]”, the “Selectivity (thrombin/FXa)” value (human thrombin; [4]) is reported as 14 and the Ki (human thrombin; [4]) is reported as 1700 nM.

For `CC(=N)N1CCC(Oc2ccc(N(Cc3ccc4ccc(C(=N)N)cc4c3)S(=O)(=O)CC(=O)O)cc2)CC1` [YM-60828], the oral absorption [3] is listed as “capable of being absorbed orally”.

For `CCOC(=O)c1cn(Cc2ccccc2)cc1Cc1ccc(C(=N)N)cc1.O=C(O)C(F)(F)F` [Compound No. A2-1, Ethyl 4-(4-aminoiminomethylbenzyl)-benzyl-pyrrole-3-carboxylate trifluoroacetic acid salt], the “Selectivity (thrombin/FXa)” value (human thrombin; A2: pyrrole scaffold) was 0.1.

For `N=C(N)c1ccc(NC(=O)Nc2ccccc2-c2cccc(C(=N)N)c2)cc1.O=C(O)C(F)(F)F.O=C(O)C(F)(F)F` [Compound No. A3-10], the “Selectivity (thrombin/FXa)” value (human thrombin; A3: bicyclic scaffold) was 0.82.

Work on `Cc1ccc(S(N)(=O)=O)c(-c2ccc(NC(=O)[C@@H]3C[C@H]3c3cccc(C(=N)N)c3)cc2)c1.O=C(O)C(F)(F)F` (relative stereo) [Compound No. A1-3, 4-(2-aminosulfonyl-5-methyl-phenyl)-phenyl trans 2-(3-aminoiminomethylphenyl-cyclopropane-1-carboxamidemonotrifluoroacetic acid salt] yielded a Ki (human thrombin; A1: cyclopropyl scaffold) of 520 nM and a Ki (trypsin [1]; A1: cyclopropyl scaffold) of 120 nM.

With `CCOC(=O)c1cn(Cc2cccc(C(=N)N)c2)cc1-c1ccc(-c2ccccc2)cc1.O=C(O)C(F)(F)F` [Compound No. A2-52, Ethyl 4-(4-biphenyl)-1-(3-aminoiminomethylbenzyl)-pyrrole-3-carboxylate trifluoroacetic acid salt] the “Selectivity (thrombin/FXa)” value (human thrombin; A2: pyrrole scaffold) was 2.6.

With “Ethyl 4-(3-aminoiminomethylbenzyl)-1-aminoiminomethylbenzyl)-pyrrole-3-carboxylate bis trifluoroacetic acid salt [Compound No. A2-37]” the “Selectivity (thrombin/FXa)” value (human thrombin; A2: pyrrole scaffold) was 7.0.

With “4-(4-Aminoiminomethylbenzyl)-1-(3-aminoiminomethylhydroxy-benzyl)-pyrrole-3-carboxylic acid bis trifluoroacetic acid salt [Compound No. A2-30]” the “Selectivity (thrombin/FXa)” value (human thrombin; A2: pyrrole scaffold) was 190.

With `N=C(N)c1ccc(Cn2cc(Cc3cccc(C(=N)N)c3)c(C(=O)N3CCOCC3)c2)cc1` [Compound No. A2-40, 4-(3-Aminoiminomethylbenzyl)-1-(4-aminoiminomethylbenzyl)-pyrrole-3-carboxylic acid morphorline amide bis trifluoroacetic acid salt] the “Selectivity (thrombin/FXa)” value (human thrombin; A2: pyrrole scaffold) was 14.

With `CCOC(=O)c1cn(Cc2ccc(C(=N)N)cc2)cc1Cc1ccc(C(=N)N)cc1.O=C(O)C(F)(F)F.O=C(O)C(F)(F)F` [Compound No. A2-42] the “Selectivity (thrombin/FXa)” value (human thrombin; A2: pyrrole scaffold) was 4.7.

In the case of `N=C(N)c1ccc(-c2ccccc2NC(=O)Nc2cccc(C(=N)N)c2)cc1.O=C(O)C(F)(F)F.O=C(O)C(F)(F)F` [Compound No. A3-8], the “Selectivity (thrombin/FXa)” value (human thrombin; A3: bicyclic scaffold) is reported as 1.6.

For `CC(=N)N1CC[C@H](Oc2ccc(C(Cc3ccc4ccc(C(=N)N)cc4c3)C(=O)O)cc2)C1` (stereo partly drawn) [DX9065a], the oral absorption [3] is given as “capable of being absorbed orally”.
